Source: ChEMBL document CHEMBL4483862, “Open-source discovery of chemical leads for next-generation chemoprotective antimalarials” (2018)

Tested on: Plasmodium berghei
Assay: Luciferase/luciferin-expressing antifolate-resistant parasites were used to infect a culture of HepG2 cells that were pre-incubated with compounds. Infected hepatocytes emit light due to the luciferase reaction. Assay results are presented as the percent inhibition of light emission compared to control. […]
Format: functional
Details: sporozoite; for IC90: read-out: LUCIFERASE INFECTION ASSAY - IC90
[1] = read-out: LUCIFERASE INFECTION ASSAY - IC50

SMILES	IC90 [µM]	IC50 [1] [µM]	also measured
CCCCn1c(N)c(N(C)CC(=O)Nc2scc(-c3ccccc3)c2C(=O)OCC)c(=O)[nH]c1=O	8.26		IC50 (FFLUC_HILL_SLOPE 12.3, FFLUC_R_SQUARED 0.419, PBLUC_HILL_SLOPE 4.64, PBLUC_R_SQUARED 0.375, read-out: LUCIFERASE INFECTION ASSAY - IC50): 5.15 µM
CN(CCOc1ccccc1F)C(=O)c1cc(S(=O)(=O)N2CCCC2)c[nH]1	> 2	> 2	
Cc1[nH]n(-c2cccc(C(F)(F)F)c2)c(=O)c1-c1cccc(Cl)c1	> 9.36		IC50 (HEPG2TOX_HILL_SLOPE 5.8, HEPG2TOX_R_SQUARED 0.928, PBLUC_HILL_SLOPE 3.11, PBLUC_R_SQUARED 0.843, read-out: LUCIFERASE INFECTION ASSAY - IC50): 6.26 µM
CCCn1c(NC(=O)c2ccc3ccccc3n2)nc2ccccc21	3.56		IC50 (PBLUC_HILL_SLOPE 15.7, PBLUC_R_SQUARED 0.527, read-out: LUCIFERASE INFECTION ASSAY - IC50): 3.1 µM
CC(C)N1CCC(C)(C(=O)Nc2ccc3c(c2)C(=O)N(C)C3=O)C1 (stereo unspecified)	> 10	> 10	
COc1ccccc1NC(=S)N/N=C/c1ccc(N2CCOCC2)cc1	> 10		IC50 (PBLUC_HILL_SLOPE 0.342, PBLUC_R_SQUARED 0.162, read-out: LUCIFERASE INFECTION ASSAY - IC50): 1.98 µM
Cc1nn(S(=O)(=O)c2ccc(-c3cc(C(F)(F)F)n(C)n3)s2)c(C)c1Br	> 7.03	> 7.03	
CCN(CC)S(=O)(=O)c1ccc(C)c(NC(=O)CN(Cc2c(F)cccc2Cl)C2CC2)c1	> 10	> 10	
COc1cccc(-c2nc3ccnc(NCCc4ccccc4)c3[nH]2)c1	7.63		IC50 (PBLUC_HILL_SLOPE 2.45, PBLUC_R_SQUARED 0.513, read-out: LUCIFERASE INFECTION ASSAY - IC50): 3.11 µM
Cc1noc(-c2ccc(Cl)cc2)c1C(=O)ONC(=N)c1ccc(C(F)(F)F)cc1	> 7.79	> 7.79	
Cc1ccc2nc(Cn3cc(C(F)(F)F)cc(Cl)c3=O)cn2c1	> 10	> 10	
CCCCNC(=O)c1c(NC(=O)c2cc(F)cc(F)c2)nc2ccccn12	1.17		IC50 (FFLUC_HILL_SLOPE 9.87, FFLUC_R_SQUARED 0.392, HEPG2TOX_HILL_SLOPE 0.611, HEPG2TOX_R_SQUARED 0.894, PBLUC_HILL_SLOPE 4.02, PBLUC_R_SQUARED 0.616, read-out: LUCIFERASE INFECTION ASSAY - IC50): 0.679 µM
COc1cccc(C(=O)Nc2cccc(Nc3ccc(-c4cccc(NC(C)=O)c4)cn3)c2)c1	> 7.29	> 7.29	
Cc1nn(Cc2ccc(C(=O)NC3CC3)cc2)c(C)c1[N+](=O)[O-]	> 10		IC50 (PBLUC_HILL_SLOPE 1.06, PBLUC_R_SQUARED 0.0833, read-out: LUCIFERASE INFECTION ASSAY - IC50): > 10 µM
COc1cccc(Nc2nccc3[nH]c(-c4cc(OC)cc(OC)c4)cc23)c1	1.74		IC50 (HEPG2TOX_HILL_SLOPE 0.988, HEPG2TOX_R_SQUARED 0.934, PBLUC_HILL_SLOPE 2.38, PBLUC_R_SQUARED 0.617, read-out: LUCIFERASE INFECTION ASSAY - IC50): 0.69 µM
COc1ccc(CN2C(=O)c3ccccc3C(/C=N\OCc3ccc(F)cc3)C2=O)cc1 (stereo unspecified)	> 7.63		IC50 (FFLUC_HILL_SLOPE 3.53, FFLUC_R_SQUARED 0.589, read-out: LUCIFERASE INFECTION ASSAY - IC50): > 7.63 µM
COC(=O)C1CC2CCCCC2N1C(=O)c1nn(C)c(=O)c2ccccc12 (stereo unspecified)	> 10	> 10	

SMILES	IC90 [µM]	IC50 [1] [µM]	also measured
Cc1cc(C(=O)COC(=O)c2ccccc2N/C=C/C(=O)C(F)(F)F)c(C)n1CC1CCCO1 (stereo unspecified)	> 10		IC50 (FFLUC_HILL_SLOPE 1.17, FFLUC_R_SQUARED 0.844, PBLUC_HILL_SLOPE 1.67, PBLUC_R_SQUARED 0.404, read-out: LUCIFERASE INFECTION ASSAY - IC50): 3.35 µM
CSc1ncc(C(=O)N2CCN(c3ccnc4cc(Cl)ccc34)CC2)n1-c1ccc(F)cc1	9.72		IC50 (PBLUC_HILL_SLOPE 12.3, PBLUC_R_SQUARED 0.334, read-out: LUCIFERASE INFECTION ASSAY - IC50): 8.13 µM
Cc1noc(N)c1C(=O)OCc1cccc2cccnc12	> 10		IC50 (HEPG2TOX_HILL_SLOPE 10.3, HEPG2TOX_R_SQUARED 0.154, PBLUC_HILL_SLOPE 14, PBLUC_R_SQUARED 0.377, read-out: LUCIFERASE INFECTION ASSAY - IC50): 9.17 µM
CC1CN(S(=O)(=O)c2cc(Cl)c(Oc3ccc([N+](=O)[O-])cc3Cl)c(Cl)c2)CC(C)O1 (stereo unspecified)	> 6.66	> 6.66	
CCOc1cc(/C=C2\S/C(=N\C3CCCC3)NC2=O)cc(Br)c1OCC	3.94		IC50 (HEPG2TOX_HILL_SLOPE 17, HEPG2TOX_R_SQUARED 0.811, PBLUC_HILL_SLOPE 15.3, PBLUC_R_SQUARED 0.445, read-out: LUCIFERASE INFECTION ASSAY - IC50): 3.41 µM
CCCn1c(NC(=O)c2cccnc2OCC)nc2ccccc21	> 10		IC50 (PBLUC_HILL_SLOPE 4.52, PBLUC_R_SQUARED 0.28, read-out: LUCIFERASE INFECTION ASSAY - IC50): 7.59 µM
Nn1cc(C(F)(F)F)cc(Cl)c1=[N+]1CCNCC1	> 7.29	> 7.29	
COc1ccc(N(Cc2nc(-c3cccs3)oc2C)S(=O)(=O)c2cccs2)cc1	0.446		IC50 (HEPG2TOX_HILL_SLOPE 2.9, HEPG2TOX_R_SQUARED 0.761, PBLUC_HILL_SLOPE 1.87, PBLUC_R_SQUARED 0.806, read-out: LUCIFERASE INFECTION ASSAY - IC50): 0.137 µM
OCc1ccc(-c2cn3c(-c4ccc(Oc5ccccc5)cc4)cnc3cn2)cc1	> 8.39		IC50 (PBLUC_HILL_SLOPE 2.74, PBLUC_R_SQUARED 0.523, read-out: LUCIFERASE INFECTION ASSAY - IC50): 5.32 µM
COc1ccccc1C(=O)c1cnc(Nc2cccc(-c3ccccc3)c2)[nH]1	> 8.93		IC50 (HEPG2TOX_HILL_SLOPE 9.5, HEPG2TOX_R_SQUARED 0.78, PBLUC_HILL_SLOPE 12, PBLUC_R_SQUARED 0.218, read-out: LUCIFERASE INFECTION ASSAY - IC50): 8.03 µM
CN(C)c1ccc(C(c2ccc(N(C)C)cc2)c2ccc(N(C)C)c(C#N)c2F)cc1	> 7.92		IC50 (FFLUC_HILL_SLOPE 2.97, FFLUC_R_SQUARED 0.397, HEPG2TOX_HILL_SLOPE 0.327, HEPG2TOX_R_SQUARED 0.744, PBLUC_HILL_SLOPE 0.914, PBLUC_R_SQUARED 0.465, read-out: LUCIFERASE INFECTION ASSAY - IC50): 6.07 µM
Fc1cccc(-n2nnnc2-c2ccc(Cl)c(Cl)c2)c1	> 10.7	> 10.7	
CCn1nc(C(=O)NCc2ccc(OC)cc2)c2c1CCN(C(=O)c1cc(C)n[nH]1)C2	3.69		IC50 (PBLUC_HILL_SLOPE 2.57, PBLUC_R_SQUARED 0.68, read-out: LUCIFERASE INFECTION ASSAY - IC50): 1.57 µM
CCc1c(C)[nH]c2c(-c3ccc(Cl)cc3)c(C)nn2c1=O	> 10.9		IC50 (PBLUC_HILL_SLOPE 2.9, PBLUC_R_SQUARED 0.859, read-out: LUCIFERASE INFECTION ASSAY - IC50): 6.48 µM
CC(=O)NCCc1ccc(C(=O)Cn2cnc3ccc(Cl)cc3c2=O)s1	> 10	> 10	
COCc1c(C(=O)Nc2nnc(C3CCCCC3)s2)oc2ccccc12	> 10	> 10	
